Laboratory results taken from paper PMC5829162, “Rational Design, Synthesis and Biological Evaluation of Pyrimidine-4,6-diamine derivatives as Type-II inhibitors of FLT3 Selective Against c-KIT” (Scientific Reports, 2018).
Read-outs that look alike come from different tables or passages of the source.

Experiments:
FLT3 kinase = target: T1, FLT3 kinase (Homo sapiens, UniProt P36888); assay: Biochemical enzyme inhibition assay (microfluidics, Caliper EZ Reader II), FLT3; conditions: for IC50: in vitro kinase assay, 60 min pre-incubation, ATP 190 µM, three independent experiments; for LE: ligand efficiency for FLT3 inhibition
T1 construct: purchased Invitrogen
T1 sequence (P36888 27-993): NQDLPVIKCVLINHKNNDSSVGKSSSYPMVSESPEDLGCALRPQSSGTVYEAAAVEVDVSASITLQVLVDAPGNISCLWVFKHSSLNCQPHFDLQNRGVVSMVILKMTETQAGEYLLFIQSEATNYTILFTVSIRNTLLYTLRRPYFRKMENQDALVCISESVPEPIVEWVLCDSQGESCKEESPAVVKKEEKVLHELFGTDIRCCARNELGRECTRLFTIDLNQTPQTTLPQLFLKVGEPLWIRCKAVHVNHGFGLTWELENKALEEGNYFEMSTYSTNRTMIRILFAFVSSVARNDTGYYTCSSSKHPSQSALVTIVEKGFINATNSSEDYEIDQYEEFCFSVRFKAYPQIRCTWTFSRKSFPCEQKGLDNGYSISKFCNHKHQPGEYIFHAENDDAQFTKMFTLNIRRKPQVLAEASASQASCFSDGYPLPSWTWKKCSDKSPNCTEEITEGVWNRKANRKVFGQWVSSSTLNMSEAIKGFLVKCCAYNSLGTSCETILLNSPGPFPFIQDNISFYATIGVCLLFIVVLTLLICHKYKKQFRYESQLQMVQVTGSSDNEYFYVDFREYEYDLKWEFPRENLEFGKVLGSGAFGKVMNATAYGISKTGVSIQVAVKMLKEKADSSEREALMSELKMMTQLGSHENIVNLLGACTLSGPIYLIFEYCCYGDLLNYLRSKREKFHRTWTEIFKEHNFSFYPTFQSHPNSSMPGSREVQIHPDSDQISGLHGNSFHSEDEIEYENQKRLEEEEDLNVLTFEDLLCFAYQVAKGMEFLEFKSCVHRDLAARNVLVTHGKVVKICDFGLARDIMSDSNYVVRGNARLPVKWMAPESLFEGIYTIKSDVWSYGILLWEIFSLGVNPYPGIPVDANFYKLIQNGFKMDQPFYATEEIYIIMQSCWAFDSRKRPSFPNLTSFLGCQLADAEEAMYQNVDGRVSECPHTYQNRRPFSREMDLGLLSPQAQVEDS
Protocol: Kinase activity was measured in a microfluidics assay that monitors the separation of a phosphorylated product from substrate[31],[32]. […] After, 1 μL was transferred into a 384-well polypropylene assay plate (Greiner, Frickenhausen, Germany). The FLT3 enzyme (Invitrogen™, Grand Island, USA) was diluted in kinase buffer to a concentration of 2 nM and 5 µL of the enzyme mixture was transferred to the assay plate. The inhibitors/FLT3 enzyme were incubated for 60 minutes with minor shaking. […] For positive control, no inhibitor was added. For negative control, no enzyme was added. For running control, quizartinib was utilized. The plate was run until 10–20% conversion based on the positive control wells. The following separation conditions were utilized: upstream voltage −500V; downstream voltage, −1900V; chip pressure −0.8. Percent inhibition was measured for each well comparing starting peptide to phosphorylated product peaks relative to the baseline. Dose response curves, spanning the IC50 dose, were generated in GraphPad Prisim 6 and fit to an exponential one-phase decay line and IC50 values were obtained from the half-life value of the curve. IC50 values were generated in duplicate and error was calculated from the standard deviation between values.
S10. Biochemical Inhibition Assay:1,2 Kinase activity was measured in a microfluidics assay that monitors the separation of a phosphorylated product from substrate. The assay was run using a 12-sipper chip on a Caliper EZ Reader II (PerkinElmer®, Walthman, USA) with separation […]
Walthman, USA]). In 96-well polypropylene plates (Greiner, Frickenhausen, Germany) […]
After, 1 μL was transferred into a 384-well polypropylene assay plate (Greiner, Frickenhausen, Germany). The FLT3 enzyme (Invitrogen™, Grand Island, USA) was diluted in kinase buffer to a concentration of 2 nM and 5 µL of the enzyme mixture was transferred to the assay plate. The inhibitors/FLT3 enzyme were incubated for 60 minutes with minor shaking. A substrate mix was prepared containing ATP (Ambresco®, Solon, USA) and […]
USA) dissolved in kinase buffer, and 5 µL of the substrate mix was added to the assay plate.
For positive control, no inhibitor was added. For negative control, no enzyme was added. For running control, quizartinib was utilized. The plate was run until 10-20% conversion based on the positive control wells. The following separation conditions were utilized: upstream voltage -500V; downstream voltage, -1900V; chip pressure - 0.8. Percent inhibition was measured for each well comparing starting peptide to phosphorylated product peaks relative to the baseline. Dose response curves, spanning the IC50 dose, were generated in GraphPad Prisim 6 and fit to an exponential one-phase decay line and IC50 values were obtained from the half-life value of the curve. IC50 values were generated in duplicate and error was calculated from the standard deviation between values. […]

| IC50 (FLT3 kinase; read-out: FLT3 IC50 (nM) ± SD) [nM] | LE (FLT3 kinase) | melting point [°C] | fold less active than 13a on FLT3 (FLT3 kinase; enzymatic FLT3 IC50 compared with 13a) | Compound | IC50 (FLT3 kinase; FLT3 IC50 (nM) ± SD) [nM] |
| --- | --- | --- | --- | --- | --- |
| 1180 ± 527 | 0.22 | 254 to 256 | – | CC(C)(C)c1cc(NC(=O)Cc2ccc(Nc3cc(Nc4cccc(C(F)(F)F)c4)ncn3)cc2)no1 [13m, 2-(4-(6-(3-(Trifluoromethyl)phenylamino)pyrimidin-4-ylamino)phenyl)-N-(5-tert-butylisoxazol-3-yl)acetamide] | – |
| 1030 ± 121 | 0.23 | 154 to 156 | – | CC(C)(C)c1cc(NC(=O)Cc2ccc(Nc3cc(NCCCN4CCCC4)ncn3)cc2)no1 [13n, 2-(4-(6-(3-(Pyrrolidin-1-yl)propylamino)pyrimidin-4-ylamino)phenyl)-N-(5-tert-butylisoxazol-3-yl)acetamide] | – |
| 395 ± 78 | 0.28 | 218 to 220 | – | CC(C)(C)c1cc(NC(=O)Cc2ccc(Nc3cc(N4CCOCC4)ncn3)cc2)no1 [13p, 2-(4-(6-Morpholinopyrimidin-4-ylamino)phenyl)-N-(5-tert-butylisoxazol-3-yl)acetamide] | – |
| 8760 ± 127 | 0.24 | 170 to 172 | – | CN(C)c1cc(Oc2ccc(CC(=O)Nc3cc(C(C)(C)C)on3)cc2)ncn1 [13q, 2-(4-(6-(Dimethylamino)pyrimidin-4-yloxy)phenyl)-N-(5-tert-butylisoxazol-3-yl)acetamide] | – |
| 860 ± 30 | 0.22 | 225 to 227 | – | CS(=O)(=O)c1ccc(Nc2cc(Nc3ccc(CC(=O)Nc4cccc(C(F)(F)F)c4)cc3)ncn2)cc1 [13s, 2-(4-(6-(4-(Methylsulfonyl)phenylamino)pyrimidin-4-ylamino)phenyl)-N-(3-(trifluoromethyl)phenyl)acetamide] | – |
| 909 ± 95.9 | 0.22 | 212 to 214 | – | O=C(Cc1ccc(Nc2cc(NCCCN3CCCC3)ncn2)cc1)Nc1ccc(OC(F)(F)F)cc1 [13t, 2-(4-(6-(3-(Pyrrolidin-1-yl)propylamino)pyrimidin-4-ylamino)phenyl)-N-(4-(trifluoromethoxy)phenyl)acetamide] | – |
| 5090 ± 75.5 | 0.25 | 208 to 210 | – | CNc1cc(Oc2ccc(CC(=O)Nc3ccc(C(C)(C)C)cc3)cc2)ncn1 [13x, 2-(4-(6-(Methylamino)pyrimidin-4-yloxy)phenyl)-N-(4-tert-butylphenyl)acetamide] | – |
| 7370 ± 333 | 0.23 | 220 to 222 | – | CNc1cc(Nc2ccc(CC(=O)Nc3ccc(OC(F)(F)F)cc3)cc2)ncn1 [13z, 2-(4-(6-(Methylamino)pyrimidin-4-ylamino)phenyl)-N-(4-(trifluoromethoxy)phenyl) acetamide] | – |
| 41 ± 6.8 | 0.27 | 238 to 240 | ~ 3 fold | Cn1nc(C(C)(C)C)cc1NC(=O)Nc1ccc(Nc2cc(Nc3ccc(S(C)(=O)=O)cc3)ncn2)cc1 [24a, 1-(4-(6-(4-(Methylsulfonyl)phenylamino)pyrimidin-4-ylamino)phenyl)-3-(3-tert-butyl-1-methyl-1H-pyrazol-5-yl)urea] | – |
| 38.2 ± 1.5 | 0.37 | 242 to 244 | – | CNc1cc(Nc2ccc(NC(=O)Nc3cc(C(C)(C)C)nn3C)cc2)ncn1 [24b, 1-(4-(6-(Methylamino)pyrimidin-4-ylamino)phenyl)-3-(3-tert-butyl-1-methyl-1H-pyrazol-5-yl)urea] | – |
| 29 ± 1.9 | 0.28 | 245 to 247 | – | CC(C)(C)c1cc(NC(=O)Nc2ccc(Nc3cc(Nc4ccc(S(C)(=O)=O)cc4)ncn3)cc2)no1 [24c, 1-(4-(6-(4-(Methylsulfonyl)phenylamino)pyrimidin-4-ylamino)phenyl)-3-(5-tert-butylisoxazol-3-yl)urea] | – |

| Compound | IC50 (FLT3 kinase; read-out: FLT3 IC50 (nM) ± SD) [nM] | LE (FLT3 kinase) | melting point [°C] | fold less active than 13a on FLT3 (FLT3 kinase; enzymatic FLT3 IC50 compared with 13a) | IC50 (FLT3 kinase; FLT3 IC50 (nM) ± SD) [nM] |
| --- | --- | --- | --- | --- | --- |
| CC(C)(C)c1cc(NC(=O)Cc2ccc(Nc3cc(Oc4ccc(Br)cc4)ncn3)cc2)no1 [13o, 2-(4-(6-(4-Bromophenoxy)pyrimidin-4-ylamino)phenyl)-N-(5-tert-butylisoxazol-3-yl)acetamide] | – | 0.19 | 188 to 190 | – | 14800 ± 248 |
